Test results from PubChem BioAssay (NCI).
Several values for one entry are separate records, joined by “and”; a condition that tells them apart may be missing. Identical values can stand only once.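 Where inhibition never reached the appropriate level, the endpoint shown equals the highest concentration tested. Otherwise, values were interpolated linearly from a five-concentration, 48-hour dose response in 96-well plates. Abbreviation: GI50, concentration required for 50% inhibition of growth. TGI denotes the concentration required for complete inhibition of growth.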

Assays:
Experiment in all cases: NCI anticancer screen, dose series, 48 h
[1] = test system: 786-0 renal
[2] = test system: A498 renal
[3] = test system: A549 NSCLC
[4] = test system: ACHN renal
[5] = test system: CCRF-CEM leukemia
[6] = test system: COLO 205 colon
[7] = test system: DLD-1 colon
[8] = test system: DMS 114 small cell lung
[9] = test system: DMS 273 small cell lung
[10] = test system: EKVX NSCLC
[11] = test system: HCC-2998 colon
[12] = test system: HCT-116 colon
[13] = test system: HL-60(TB) leukemia
[14] = test system: HOP-92 NSCLC
[15] = test system: HT29 colon
[16] = test system: IGROV1 ovarian
[17] = test system: K-562 leukemia
[18] = test system: LOX IMVI melanoma
[19] = test system: M19-MEL melanoma
[20] = test system: MALME-3M melanoma
[21] = test system: NCI-H460 lung
[22] = test system: OVCAR-3 ovarian
[23] = test system: OVCAR-4 ovarian
[24] = test system: OVCAR-5 ovarian
[25] = test system: RPMI-8226 leukemia
[26] = test system: RXF-631 renal
[27] = test system: SF-268 CNS
[28] = test system: SF-295 CNS
[29] = test system: SK-MEL-28 melanoma
[30] = test system: SK-MEL-5 melanoma
[31] = test system: SK-OV-3 ovarian
[32] = test system: SN12C renal
[33] = test system: SNB-19 CNS
[34] = test system: SNB-75 CNS
[35] = test system: SNB-78 CNS
[36] = test system: SR leukemia
[37] = test system: SW-620 colon
[38] = test system: TK-10 renal
[39] = test system: UACC-62 melanoma
[40] = test system: UO-31 renal
[41] = test system: XF 498 CNS
[42] = test system: HCT-15 colon
[43] = test system: HOP-18 NSCLC
[44] = test system: HOP-62 NSCLC
[45] = test system: KM12 colon
[46] = test system: KM20L2 colon
[47] = test system: LXFL 529 NSCLC
[48] = test system: M14 melanoma
[49] = test system: MOLT-4 leukemia
[50] = test system: NCI-H226 lung
[51] = test system: NCI-H23 lung
[52] = test system: OVCAR-8 ovarian
[53] = test system: RXF 393 renal
[54] = test system: SF-539 CNS
[55] = test system: SK-MEL-2 melanoma
[56] = test system: U251 CNS
[57] = test system: UACC-257 melanoma
[58] = test system: CAKI-1 renal
[59] = test system: NCI-H522 lung

With `COc1cc2c(c(OC)c1OC)-c1ccc(SC)c(=O)cc1[C@@H](NC(=O)c1ccc([N+](=O)[O-])cc1)CC2` the TGI [1] was 15.6 µM and 30.7 µM, the TGI [2] was 3.57 µM and the TGI [3] was 25 µM and > 100 µM. The TGI [4] was 25 µM and > 100 µM, the TGI [5] was 25 µM and the TGI [6] was 25 µM. The TGI [7] was 25 µM and > 100 µM, the TGI [8] was 0.89 µM and the TGI [9] was 25 µM and > 100 µM. For the same molecule, the TGI [10] was 25 µM, the TGI [11] was 0.0151 µM and the TGI [12] was 7.28 µM and 11.7 µM. It also gave a TGI [13] of 0.302 µM, a TGI [14] of 23.2 µM and a GI50 [15] of under 0.0025 µM. For the same molecule, the TGI [16] was 25 µM and > 100 µM, the TGI [17] was 25 µM and > 100 µM and the TGI [18] was 25 µM and > 100 µM. For the same molecule, the TGI [19] was 25 µM and > 100 µM, the TGI [20] was 25 µM and > 100 µM and the TGI [21] was 0.0108 µM. For the same molecule, the TGI [22] was 0.00595 µM, the TGI [23] was 25 µM and > 100 µM and the TGI [24] was 0.171 µM. For the same molecule, the TGI [25] was 25 µM and > 100 µM, the TGI [26] was over 100 µM and the TGI [27] was 25 µM and > 100 µM. For the same molecule, the TGI [28] was 0.00721 µM, the TGI [29] was over 100 µM and the TGI [30] was 3.79 µM and 1.59 µM. The TGI [31] was 0.0575 µM, the TGI [32] was 25 µM and > 100 µM and the TGI [33] was 23.2 µM. The GI50 [34] was under 0.0025 µM, the TGI [35] was 25 µM and the TGI [36] was 25 µM and > 100 µM. For the same molecule, the TGI [37] was 25 µM and > 100 µM, the GI50 [38] was 0.0344 µM and the TGI [38] was 25 µM and > 100 µM. For the same molecule, the TGI [39] was 25 µM and > 100 µM, the TGI [40] was 25 µM and 59.4 µM and the TGI [41] was 25 µM.
For `COc1ccc([C@H]2c3cc4c(cc3OC(O)(CO)[C@H]2C(=O)O)OCO4)c(OC)c1` (some centres not stated) (tested in a mixture with another compound), the TGI [2] was over 100 µM, the TGI [3] was over 100 µM and the TGI [4] was over 100 µM. It also gave a TGI [5] of over 100 µM, a TGI [6] of over 100 µM and a TGI [7] of over 100 µM. It also gave a TGI [8] of over 100 µM, a TGI [9] of over 100 µM and a TGI [10] of over 100 µM. For the same molecule, the TGI [11] was over 100 µM, the TGI [12] was over 100 µM and the TGI [42] was over 100 µM. It also gave a TGI [13] of over 100 µM, a TGI [43] of over 100 µM and a TGI [44] of over 100 µM. It also gave a TGI [14] of over 100 µM, a TGI [15] of over 100 µM and a TGI [16] of over 100 µM. For the same molecule, the TGI [17] was over 100 µM, the TGI [45] was over 100 µM and the TGI [46] was over 100 µM. For the same molecule, the TGI [18] was over 100 µM, the TGI [47] was over 100 µM and the TGI [48] was over 100 µM. For the same molecule, the TGI [19] was over 100 µM, the TGI [20] was over 100 µM and the TGI [49] was over 100 µM. The TGI [50] was over 100 µM, the TGI [51] was over 100 µM and the TGI [21] was over 100 µM. For the same molecule, the TGI [22] was over 100 µM, the TGI [23] was over 100 µM and the TGI [24] was over 100 µM. The TGI [52] was over 100 µM, the TGI [25] was over 100 µM and the TGI [53] was over 100 µM. It also gave a TGI [27] of over 100 µM, a TGI [28] of over 100 µM and a TGI [54] of over 100 µM. The TGI [55] was over 100 µM, the TGI [29] was 95.8 µM and the TGI [30] was over 100 µM. It also gave a TGI [31] of over 100 µM, a TGI [32] of over 100 µM and a TGI [33] of over 100 µM. The TGI [34] was over 100 µM, the TGI [35] was over 100 µM and the TGI [36] was over 100 µM. For the same molecule, the TGI [37] was over 100 µM, the TGI [38] was over 100 µM and the TGI [56] was over 100 µM. For the same molecule, the TGI [57] was over 100 µM, the TGI [39] was over 100 µM and the TGI [40] was over 100 µM. The TGI [41] was over 100 µM.
With `CCOC(=O)C(=O)Nc1ccccc1OCC` the TGI [1] was over 100 µM, the TGI [3] was over 100 µM and the TGI [4] was over 100 µM. The TGI [58] was over 100 µM, the TGI [5] was over 100 µM and the TGI [7] was over 100 µM. The TGI [8] was over 100 µM, the TGI [10] was over 100 µM and the TGI [11] was over 100 µM. For the same molecule, the TGI [12] was over 100 µM, the TGI [13] was over 100 µM and the TGI [43] was over 100 µM. The TGI [44] was over 100 µM, the TGI [14] was over 100 µM and the TGI [15] was over 100 µM. The TGI [16] was over 100 µM, the TGI [17] was over 100 µM and the TGI [45] was over 100 µM. It also gave a TGI [18] of over 100 µM, a TGI [47] of over 100 µM and a TGI [48] of over 100 µM. The TGI [19] was over 100 µM, the TGI [20] was over 100 µM and the TGI [49] was over 100 µM. For the same molecule, the TGI [50] was over 100 µM, the TGI [51] was over 100 µM and the TGI [21] was over 100 µM. It also gave a TGI [59] of over 100 µM, a TGI [22] of over 100 µM and a TGI [23] of over 100 µM. It also gave a TGI [24] of over 100 µM, a TGI [52] of over 100 µM and a TGI [25] of over 100 µM. For the same molecule, the TGI [53] was over 100 µM, the TGI [27] was over 100 µM and the TGI [28] was over 100 µM. The TGI [54] was over 100 µM, the TGI [55] was over 100 µM and the TGI [29] was over 100 µM. For the same molecule, the TGI [30] was over 100 µM, the TGI [31] was over 100 µM and the TGI [32] was over 100 µM. The TGI [33] was over 100 µM, the TGI [35] was over 100 µM and the TGI [37] was over 100 µM. For the same molecule, the TGI [38] was over 100 µM, the TGI [56] was over 100 µM and the TGI [57] was over 100 µM. The TGI [39] was over 100 µM, the TGI [40] was over 100 µM and the TGI [41] was over 100 µM.
Molecule `Nc1c(C(=O)NC23CC4CC(CC(C4)C2)C3)[n+]([O-])c2ccccc2[n+]1[O-]` has a TGI [1] of over 100 µM, a TGI [2] of over 100 µM and a TGI [3] of over 100 µM. It also gave a TGI [4] of over 100 µM, a TGI [58] of over 100 µM and a TGI [5] of over 100 µM. The TGI [6] was over 100 µM, the TGI [7] was over 100 µM and the TGI [9] was over 100 µM. It also gave a TGI [10] of over 100 µM, a TGI [11] of over 100 µM and a TGI [42] of over 100 µM. The TGI [13] was over 100 µM, the TGI [43] was over 100 µM and the TGI [44] was over 100 µM. It also gave a TGI [14] of over 100 µM, a TGI [15] of over 100 µM and a TGI [16] of over 100 µM. It also gave a TGI [17] of over 100 µM, a TGI [45] of over 100 µM and a TGI [46] of over 100 µM. For the same molecule, the TGI [18] was over 100 µM, the TGI [47] was over 100 µM and the TGI [48] was over 100 µM. For the same molecule, the TGI [19] was over 100 µM, the TGI [20] was over 100 µM and the TGI [49] was over 100 µM. For the same molecule, the TGI [50] was over 100 µM, the TGI [51] was over 100 µM and the TGI [21] was over 100 µM. For the same molecule, the TGI [59] was over 100 µM, the TGI [22] was over 100 µM and the TGI [23] was over 100 µM. For the same molecule, the TGI [24] was over 100 µM, the TGI [52] was over 100 µM and the TGI [25] was over 100 µM. The TGI [27] was over 100 µM, the TGI [28] was over 100 µM and the TGI [54] was over 100 µM. The TGI [55] was over 100 µM, the TGI [29] was over 100 µM and the TGI [30] was over 100 µM. It also gave a TGI [31] of over 100 µM, a TGI [32] of over 100 µM and a TGI [33] of over 100 µM. It also gave a TGI [34] of over 100 µM, a TGI [35] of over 100 µM and a TGI [37] of over 100 µM. The TGI [38] was over 100 µM, the TGI [56] was over 100 µM and the TGI [57] was over 100 µM. It also gave a TGI [39] of over 100 µM, a TGI [40] of over 100 µM and a TGI [41] of over 100 µM.
